# From article PMC11040934, “PI3Kγδ inhibition suppresses key disease features in a rat model of asthma” (Respiratory Research, 2024)
# How the values were obtained:
# asthma patients = conditions: cited from earlier work
# rat PI3Kγ = rat PI3Kγ (Rattus norvegicus, UniProt D3ZFJ0); assay: PI3K γ assay: CXCL1/CINC-1-stimulated CD11b expression on rat whole blood neutrophils (FACS); format: cell-based; conditions: reference inhibitors, at the relevant concentration
# Procedure: (§1) PI3K γ assay: whole blood from male Sprague Dawley rat was collected in heparin coated tubes and pre-treated (1 hr., 37 °C, 5% CO2) with vehicle DMSO or PI3K inhibitors followed by stimulation with Rat CXCL1/CINC-1 (515-CN-050, R&D) at 500 ng/mL (EC80 determined in house; 1 hr., RT). Next, cells were stained with Fc block (550,273, BD bioscience, 1:100; 20 mins, RT), CD45R-B220-PeCy7 (HIS24) (25–0460-82, eBioscience, 1:100), CD43-PE (W3/13) (202,812, Biolegend, 1:100), HIS48-FITC (11–0570-82, eBioscience, 1:100), CD11b-APC (562,102, BD Bioscience, 1:100). Cells were lysed and fixed with BD FACS lysing solution (349,202, BD Biosciences; 45 mins, RT) before FACS acquisition (BD LSRFortessa™). Data were analysed using FlowJo 9.9 software (TreeStar). FACS gating strategy: lymphocytes (FSC-A vs SSC-A), doublets exclusion (FSC-W vs FSC-H), neutrophil identification B220-, HIS48hi, CD43hi, SSC-Ahi, geom. MFI for CD11b on neutrophils. IC50 values were determined in Graph Pad through a nonlinear fit on log transform data: log inhibitor vs response, variable slope, 4 parameters. Fraction unbound in diluted whole blood is calculated using the following equation: fu^′=DF·fub/1+DF-1·fub where fu’ is the fraction unbound in diluted whole blood; fub is the fraction unbound in undiluted whole blood; DF is the dilution factor. Fraction unbound in 100% whole blood (fub) is calculated as fup/BP, where fup is the experimentally determined fraction unbound in undiluted plasma and BP is the experimentally determined blood to plasma partition ratio of drug Table 1.
# rat PI3Kδ = biological target: T1, rat PI3Kδ (Rattus norvegicus, UniProt A0A8I5Y949); assay: PI3K δ assay: anti-IgM-stimulated CD86 expression on rat splenic B cells (FACS); format: cell-based; conditions: reference inhibitors, at the relevant concentration
# T1 sequence (A0A8I5Y949 1-1047): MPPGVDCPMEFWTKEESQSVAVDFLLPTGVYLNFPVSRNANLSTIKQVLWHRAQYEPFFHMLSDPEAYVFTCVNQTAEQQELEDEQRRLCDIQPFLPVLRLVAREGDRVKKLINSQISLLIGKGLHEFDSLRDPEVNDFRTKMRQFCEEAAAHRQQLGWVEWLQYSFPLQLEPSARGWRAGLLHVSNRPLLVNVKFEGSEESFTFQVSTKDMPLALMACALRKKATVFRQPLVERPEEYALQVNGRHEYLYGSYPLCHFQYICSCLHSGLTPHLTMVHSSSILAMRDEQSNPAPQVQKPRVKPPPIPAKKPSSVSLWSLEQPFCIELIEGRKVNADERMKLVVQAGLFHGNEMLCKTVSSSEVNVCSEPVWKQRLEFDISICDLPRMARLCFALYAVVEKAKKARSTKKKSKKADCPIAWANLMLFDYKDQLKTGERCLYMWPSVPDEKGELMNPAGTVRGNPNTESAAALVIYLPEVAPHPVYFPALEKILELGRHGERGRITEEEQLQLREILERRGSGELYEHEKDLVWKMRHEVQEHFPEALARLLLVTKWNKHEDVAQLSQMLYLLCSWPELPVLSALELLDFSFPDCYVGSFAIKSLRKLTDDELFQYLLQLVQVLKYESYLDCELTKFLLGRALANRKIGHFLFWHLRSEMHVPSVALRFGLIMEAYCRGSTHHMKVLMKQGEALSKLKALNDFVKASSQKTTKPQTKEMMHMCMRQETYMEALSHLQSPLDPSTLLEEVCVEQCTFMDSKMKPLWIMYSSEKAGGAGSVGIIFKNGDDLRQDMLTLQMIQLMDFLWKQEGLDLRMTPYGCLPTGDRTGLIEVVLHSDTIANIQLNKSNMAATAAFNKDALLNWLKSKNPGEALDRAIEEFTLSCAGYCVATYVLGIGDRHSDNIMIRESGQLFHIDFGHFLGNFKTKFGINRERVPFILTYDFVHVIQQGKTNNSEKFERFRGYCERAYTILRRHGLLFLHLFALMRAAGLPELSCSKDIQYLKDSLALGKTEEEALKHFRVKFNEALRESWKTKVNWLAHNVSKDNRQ
# Procedure: (§2) PI3K δ assay: single cell suspension was obtained from the spleen of male Sprague Dawley rat; cells were cultured in RPMI containing heat-inactivated 10% FBS, pre-treated (1 hr., 37 °C, 5% CO2) with vehicle DMSO or PI3K inhibitors, followed by stimulation with AffiniPure F(ab’)2 Fragment Goat Anti-Rat IgM, μ chain specific, Jackson Immunoresearch (112–006-075) at 5 μg/mL (EC80 determined in house; 20–22 hrs). Then, cells were washed with FACS buffer (2% FBS, […]) and stained (15 mins, 4 °C) with Fc block (1:100, 550,273, BD bioscience), LIVE/DEAD Fixable Aqua Dead Cell Stain Kit (L34957, Invitrogen, 1:300), CD45R (B220)-PeCy7 (HIS24) (25–0460-82, eBioscience, 1:100), CD3-AF647 (IF4) (201,408, Biolegend, 1:100), CD86-FITC (24F) (200,305, Biolegend, 1:50). Cells were acquired on the Flow Cytometer (BD LSRFortessa™) and analysed using FlowJo 9.9 software (TreeStar). FACS gating strategy: lymphocytes (FSC-A vs SSC-A), doublets exclusion (FSC-W vs FSC-H), live cells (Aqua-530-), B cell identification CD3- B220 + % of positive B cells for CD86. IC50 values were determined in Graph Pad through a nonlinear fit on log transform data: log inhibitor vs response, variable slope, 4 parameters. Fraction unbound in in vitro assay is calculated using the following equation: fu^′=DF·fup/1+DF-1·fup where fu’ is the fraction unbound in assay media; fup is the experimentally determined fraction unbound in undiluted human plasma; DF is the dilution factor (fold difference between protein concentration in human plasma and assay media, using an albumin concentration of 600 μM (40 g/L) for undiluted plasma) Table 2.
# [1] = Rat plasma protein binding, blood to plasma ratio, unbound fraction in whole blood; format: in vitro ADME; conditions: for Rat fub: fraction unbound in 100% whole blood, fup/BP; for fraction unbound: rat
# Procedure: as §1, with “Next,” for “PI3K γ assay: whole blood from male Sprague Dawley rat was collected in heparin coated tubes and pre-treated (1 hr., 37 °C, 5% CO2) with vehicle DMSO or PI3K inhibitors followed by stimulation with Rat CXCL1/CINC-1 (515-CN-050, R&D) at 500 ng/mL (EC80 determined in house; 1 hr., RT). Next,”
# [2] = Human plasma protein binding and unbound fraction in assay media; format: in vitro ADME
# Procedure: as §2
# Chain of rat PI3Kγ (D3ZFJ0 1-1102): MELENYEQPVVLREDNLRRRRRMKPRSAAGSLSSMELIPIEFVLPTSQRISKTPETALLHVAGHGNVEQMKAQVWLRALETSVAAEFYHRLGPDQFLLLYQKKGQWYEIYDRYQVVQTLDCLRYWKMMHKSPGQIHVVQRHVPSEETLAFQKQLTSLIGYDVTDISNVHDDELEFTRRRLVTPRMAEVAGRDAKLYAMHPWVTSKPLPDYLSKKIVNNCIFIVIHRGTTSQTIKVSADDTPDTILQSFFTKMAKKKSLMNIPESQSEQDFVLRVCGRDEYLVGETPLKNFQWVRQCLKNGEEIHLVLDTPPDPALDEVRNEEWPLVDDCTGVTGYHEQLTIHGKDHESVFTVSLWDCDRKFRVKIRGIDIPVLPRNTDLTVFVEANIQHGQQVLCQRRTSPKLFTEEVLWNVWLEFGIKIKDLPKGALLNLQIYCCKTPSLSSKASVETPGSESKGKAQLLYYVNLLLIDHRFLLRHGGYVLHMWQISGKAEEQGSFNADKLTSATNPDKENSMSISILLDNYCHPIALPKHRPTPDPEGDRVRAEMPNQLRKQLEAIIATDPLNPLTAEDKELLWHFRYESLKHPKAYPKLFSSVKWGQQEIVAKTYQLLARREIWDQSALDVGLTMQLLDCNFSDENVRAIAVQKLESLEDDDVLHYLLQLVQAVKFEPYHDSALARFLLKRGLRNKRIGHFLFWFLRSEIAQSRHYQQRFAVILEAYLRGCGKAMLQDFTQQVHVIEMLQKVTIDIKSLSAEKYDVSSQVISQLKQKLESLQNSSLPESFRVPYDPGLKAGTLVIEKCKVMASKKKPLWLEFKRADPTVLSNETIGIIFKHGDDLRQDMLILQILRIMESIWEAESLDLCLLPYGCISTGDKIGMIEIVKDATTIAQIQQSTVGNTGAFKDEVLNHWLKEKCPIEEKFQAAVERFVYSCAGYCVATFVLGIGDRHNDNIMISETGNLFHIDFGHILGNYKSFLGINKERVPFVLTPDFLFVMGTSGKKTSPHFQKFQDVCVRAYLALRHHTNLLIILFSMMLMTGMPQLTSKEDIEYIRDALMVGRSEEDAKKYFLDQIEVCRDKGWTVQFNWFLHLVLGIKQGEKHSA
structure (smiles),measurement,setting,value
C[C@H](Nc1ncnc2nc[nH]c12)c1cc2cccc(Cl)c2c(=O)n1-c1ccccc1 [duvelisib],effect in clinical asthma trials,asthma patients; oral,beneficial effects
CC(=O)Nc1nc(C)c(-c2cc3c(c(S(C)(=O)=O)c2)C(=O)N([C@@H](C)C2CC2)C3)s1 [AZD3458],effect in PI3Kγ assay (CD11b expression),rat PI3Kγ,blocked their respective assay
same,effect in PI3Kδ assay (CD86 expression),rat PI3Kδ,had no impact on the other assay
same,Rat fub,[1],0.200
CC(C)N1CCN(Cc2cnc(-c3cc(-c4cccc5[nH]ccc45)cc4[nH]ncc34)o2)CC1 [GSK2269557],effect in PI3Kγ assay (CD11b expression),rat PI3Kγ,had no impact on the other assay
same,effect in PI3Kδ assay (CD86 expression),rat PI3Kδ,blocked their respective assay
same,Rat B/P ratio,[1]; blood to plasma partition ratio,0.88
same,Rat fub,[1],0.050
same,fraction unbound,"[1]; diluted whole blood (PI3K γ assay), fraction unbound in diluted whole blood, DF 1.05 (γ assay), read-out: fu’",0.0524
same,fraction unbound,"[1]; plasma, rat plasma, fraction unbound, read-out: Rat ppb (fu, %)",0.044
same,fraction unbound,"[1]; plasma, undiluted rat plasma, fraction, read-out: Rat plasma fu",0.044
same,fraction unbound,"[2]; human plasma, fraction unbound, read-out: Human ppb (fu, %)",0.021
same,fraction unbound,"[2]; human, assay media (PI3K δ assay), fraction unbound in assay media (δ assay, RPMI 10% FBS), read-out: Fu’",0.177
CC(C)N1CCN(Cc2cnc(-c3cc(-c4cccc5[nH]ccc45)cc4[nH]ncc34)o2)CC1 [Nemarisilib],asthma symptoms in clinical trials,asthma patients; inhaled,no improvement in asthma symptoms
same,cough propensity in clinical trials,asthma patients; inhaled,increase in cough propensity
